The values below come from US5648360A, “Pentacyclic antihistamines” (Schering Corporation, priority 1994, dated 1997).

Experiment [1] deals with PAF-induced platelet aggregation. The experiment in a line: In vitro PAF antagonism assay (inhibition of PAF-induced platelet aggregation in platelet-rich plasma). The experiment is classed as cell-based. To be noted: human PRP, PAF 1-5×10^-8 M. The procedure: In vitro Assay: Preparation of platelet-rich plasma (PRP): Human blood (50 ml) is collected from healthy male donors in an anticoagulant solution (5 ml) containing sodium citrate (3.8%) and dextrose (2%). Blood is centrifuged at 110 x g for 15 min. and the supematant (PRP) carefully transferred into a polypropylene tube. Platelet-poor-plasma (PPP) is prepared by centrifuging PRP at 12,000 x g for 2 min. (Beckman Microfuge B). PRP is used within 3 hours of drawing the blood.
Platelet Aggregation Assay: When an aggregating agent such as PAF is added to PRP, platelets aggregate. The aggregation assays are performed using a dual-channel aggregometer (Model 440, Chrono-Log Corp., Havertown, Pa.). PRP (0.45 ml) in aggregometer cuvettes is continually stirred (37° C.). Solutions of test compounds or vehicle are added to the PRP, and after incubation for 2 min., 10-15 μl aliquots of PAF solution are added so as to achieve a final concentration of 1-5×10^-8 M. Incubations are continued until the increase in light transmission reaches a maximum (usually 2 min). Values for inhibition are calculated by comparing maximal aggregation obtained in the absence and the presence of the compound. For each experiment, a standard PAF antagonist such as alprazolam is used as a positive internal control. The inhibitory concentration (IC50) is the concentration of compound in micromoles at which 50% of the aggregation is inhibited, as measured by the light transmission through each sample of PRP as compared to PPP.

For a further experiment, the target named is T1, H1 (Cavia porcellus, UniProt P31389).
T1 construct: Ileal segments were removed from male Hartley guinea pigs; from tissue; host or cells: isolated ileal segments of male Hartley guinea pigs
The experiment in a line: In vitro H1 antihistamine activity assay (inhibition of histamine spasmogenic activity in isolated ileal segments). Particulars: guinea pig ileum, antagonist 5 min before histamine curve. Further details: species or system male Hartley guinea pigs. The procedure:
In vitro assay: Ileal segments were removed from male Hartley guinea pigs (250-350 g) and suspended in 10 ml perfusion baths containing Tyrode's solution. The buffer was equilibrated with 95% O2 and 5% CO2 and maintained at a temperature of 37° C. The tissues were adjusted to 0.5-1 g tension and allowed to equilibrate for 30 min. All responses were recorded isometrically by means of a Grasse smooth muscle transducer and electronic recorder. Drugs were tested for their ability to inhibit the spasmogenic activity of histamine dihydrochloride. Two cumulative control log concentration-response curves for histamine (10^-7 -10^-5 M) were generated for each tissue. Antagonists were added to the bath and allowed to act for 5 min. before another histamine curve was generated.
Drugs were evaluated for their ability to inhibit histamine and thereby shift the response curve to the right. […] These values were used to determine relative potency.

Molecules are shown by their SMILES.

T1 sequence (P31389 whole entry): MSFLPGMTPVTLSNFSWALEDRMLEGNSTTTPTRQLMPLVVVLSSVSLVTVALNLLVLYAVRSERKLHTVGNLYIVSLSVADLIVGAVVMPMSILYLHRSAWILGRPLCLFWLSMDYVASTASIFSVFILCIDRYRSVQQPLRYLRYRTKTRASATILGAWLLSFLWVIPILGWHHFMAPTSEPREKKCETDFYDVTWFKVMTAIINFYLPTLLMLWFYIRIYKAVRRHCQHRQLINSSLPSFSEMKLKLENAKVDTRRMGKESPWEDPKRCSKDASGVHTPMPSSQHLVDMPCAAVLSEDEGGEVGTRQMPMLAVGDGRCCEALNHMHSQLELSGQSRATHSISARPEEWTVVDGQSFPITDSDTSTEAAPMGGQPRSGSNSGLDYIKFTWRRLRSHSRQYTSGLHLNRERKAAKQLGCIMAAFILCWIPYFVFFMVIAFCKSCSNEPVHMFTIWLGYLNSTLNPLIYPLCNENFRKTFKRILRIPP

Consider `CC(=O)N1CC[C@H]2C(=O)c3cc(Cl)cc4c3[C@H](c3ncccc3CC4)[C@H]2C1` (relative stereo) [Compound 6A], for which at 50 µM the inhibition in experiment [1] was 33%.
`CC(=O)N1CC[C@@H]2C(=O)c3cc(Cl)cc4c3[C@H](c3ncccc3CC4)[C@H]2C1` (relative stereo) [Compound 6B] had an inhibition at 50 µM in experiment [1] of 49%.
Compound `CC(=O)N1CC[C@@H]2[C@H]3c4ncccc4CCc4cc(Cl)cc(c43)C(=O)[C@@H]2C1` (relative stereo) [Compound 10A] showed an inhibition at 50 µM in experiment [1] of 15%.
The compound `CN1CC[C@@H]2[C@H]3c4ncccc4CCc4cc(Cl)cc(c43)C(=O)[C@@H]2C1` (relative stereo) [Compound 11A] displayed an inhibition at 50 µM in experiment [1] of 47%.
In turn, `CN1CC[C@@H]2[C@H]3c4ncccc4CCc4cc(Cl)cc(c43)C(=O)[C@H]2C1` (relative stereo) [Compound 11B] returned an inhibition at 50 µM in experiment [1] of 4%.
The same measure, in the same setting: in the case of `CC(=O)N1CC[C@H]2C(=Cc3cc(Cl)cc4c3[C@@H]2c2ncccc2CC4)C1` (relative stereo) [Compound 13] it was 23%.
`CC(=O)N1CC[C@H]2[C@H](Cc3cc(Cl)cc4c3[C@@H]2c2ncccc2CC4)C1` (relative stereo) [Compound 14A] returned an IC50 in experiment [1] of about 3000 µM.
Consider `CC(=O)N1CC[C@H]2[C@@H](Cc3cc(Cl)cc4c3[C@@H]2c2ncccc2CC4)C1` (relative stereo) [Compound 14B], for which the concentration for half-maximal inhibition (IC50) in experiment [1] was about 300 µM.
In experiment [1], `CN1CC[C@H]2C(=Cc3cc(Cl)cc4c3[C@@H]2c2ncccc2CC4)C1` (relative stereo) [Compound 16] displayed a half-maximal inhibitory concentration (IC50) of about 5.5 µM.
The compound `CN1CC[C@H]2[C@@H](Cc3cc(Cl)cc4c3[C@@H]2c2ncccc2CC4)C1` (relative stereo) [Compound 17, 7-chloro-2,3,4,4a,5,9,10,14b,14c-decahydro-3-methylpyrido[2",3":7',6']-cyclohepta[1',2',3',:4,5]naphtho[2,3-c]pyridine] registered an IC50 in experiment [1] of about 38 µM. Also, on H1 (read-out: dissociation constant (Ki)), the Ki was found to be 0.001 µM. In addition, at H1 (read-out: pA2 (converted)), the Kb was 0.00141 µM.
`O=C(c1cc[n+]([O-])cc1)N1CC[C@H]2[C@@H](Cc3cc(Cl)cc4c3[C@@H]2c2ncccc2CC4)C1` (relative stereo) [Compound 20]: the IC50 in experiment [1] was about 2.8 µM.
